Literature values, collected in US20020102237A1, “Compositions and methods for hepatitis treatment” (priority 2000, published 2002).

Tested on: hepatitis C infection

alpha-interferon
patients responding with normalization of alanine aminotransferase (ALT) (hepatitis C infection, 3 million units subcutaneously three times weekly for six months): approximately 50%
relapse of responders upon discontinuation of therapy (hepatitis C infection, after standard six-month therapy): half of those responding relapse

interferon
response rate (long term efficacy) (chronic hepatitis C, interferon with or without Ribavirin): about 25%
